In patent US10750743B2, “Pyridazinone herbicides” (E.I. DU PONT DE NEMOURS AND COMPANY, priority 2015, dated 2020):

Legend:
Assay type in all cases: in vivo
[1] = test system: barnyardgrass (Echinochloa crus-galli); experiment: Test A preemergence, directed soil spray, visual injury rating; conditions: 0 is no effect, 100 is complete control
How it was run: (§1)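 Seeds sown in a loam soil–sand blend received a directed preemergence soil spray of test chemical in a non-phytotoxic solvent mixture with surfactant. Postemergence plants were sprayed at 2 to 10 cm, one- to two-leaf stage. After approximately 10 d in greenhouse, injury was visually rated 0 (no effect) to 100 (complete control) against untreated controls.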

[2] = test system: foxtail, giant (giant foxtail, Setaria faberii); experiment: as above; conditions: 0 is no effect, 100 is complete control
How it was run: as §1

kochia (Kochia scoparia) [3] = experiment: as above; conditions: 0 is no effect, 100 is complete control
How it was run: as §1

[4] = test system: pigweed (Amaranthus retroflexus); experiment: as above; conditions: 0 is no effect, 100 is complete control
How it was run: as §1

[5] = test system: ragweed (common ragweed, Ambrosia elatior); experiment: as above; conditions: 0 is no effect, 100 is complete control
How it was run: as §1

[6] = test system: ryegrass, It. (Italian ryegrass, Lolium multiflorum); experiment: as above; conditions: 0 is no effect, 100 is complete control
How it was run: as §1

[7] = test system: barnyardgrass (Echinochloa crus-galli); experiment: Test B flooded paddy test, visual rating; conditions: Flood, 250 g ai/ha, applied to paddy water, rated after 13 to 15 d
How it was run: (§2)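 Plants at the 2-leaf stage were flooded to 3 cm above soil, and test compounds were applied directly into the paddy water, which was held at that depth throughout. After 13 to 15 d in a greenhouse, injury was rated visually against untreated controls on a 0–100 scale (0 no effect, 100 complete control).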

[8] = test system: ducksalad (Heteranthera limosa); experiment: Test B flooded paddy test, visual rating; conditions: Flood, 250 g ai/ha, applied to paddy water, rated after 13 to 15 d
How it was run: as §2

rice (Oryza sativa) = experiment: Test B flooded paddy test, visual rating; conditions: Flood, 250 g ai/ha, applied to paddy water, rated after 13 to 15 d
How it was run: as §2

[9] = test system: sedge, umbrella (small-flower umbrella sedge, Cyperus difformis); experiment: Test B flooded paddy test, visual rating; conditions: Flood, 250 g ai/ha, applied to paddy water, rated after 13 to 15 d
How it was run: as §2

[10] = test system: barnyardgrass (Echinochloa crus-galli); experiment: Test A postemergence application, visual injury rating; conditions: 0 to 100 scale, 0 no effect, 100 complete control
How it was run: as §1

[11] = test system: blackgrass (Alopecurus myosuroides); experiment: as above; conditions: 0 to 100 scale, 0 no effect, 100 complete control
How it was run: as §1

corn (Zea mays) = experiment: as above; conditions: 0 to 100 scale, 0 no effect, 100 complete control
How it was run: as §1

[12] = test system: foxtail, giant (giant foxtail, Setaria faberii); experiment: as above; conditions: 0 to 100 scale, 0 no effect, 100 complete control
How it was run: as §1

[13] = test system: galium (catchweed bedstraw, Galium aparine); experiment: as above; conditions: 0 to 100 scale, 0 no effect, 100 complete control
How it was run: as §1

kochia (Kochia scoparia) [14] = experiment: as above; conditions: 0 to 100 scale, 0 no effect, 100 complete control
How it was run: as §1

[15] = test system: pigweed (Amaranthus retroflexus); experiment: as above; conditions: 0 to 100 scale, 0 no effect, 100 complete control
How it was run: as §1

[16] = test system: ragweed (common ragweed, Ambrosia elatior); experiment: as above; conditions: 0 to 100 scale, 0 no effect, 100 complete control
How it was run: as §1

[17] = test system: ryegrass, It. (Italian ryegrass, Lolium multiflorum); experiment: as above; conditions: 0 to 100 scale, 0 no effect, 100 complete control
How it was run: as §1

[18] = test system: wheat (Triticum aestivum); experiment: as above; conditions: 0 to 100 scale, 0 no effect, 100 complete control
How it was run: as §1

| Compound | Plant response rating (0 to 100 scale), Barnyardgrass ([1]; 125 g ai/ha) | Plant response rating (0 to 100 scale), Foxtail, Giant ([2]; 125 g ai/ha) | Plant response rating (0 to 100 scale), Kochia (kochia (Kochia scoparia) [3]; 125 g ai/ha) | Plant response rating (0 to 100 scale), Pigweed ([4]; 125 g ai/ha) | Plant response rating (0 to 100 scale), Ragweed ([5]; 125 g ai/ha) | Plant response rating (0 to 100 scale), Ryegrass, It. ([6]; 125 g ai/ha) | Barnyardgrass plant response rating (0 to 100 scale, 0 is no effect, 100 is complete control) [7] | Ducksalad plant response rating (0 to 100 scale, 0 is no effect, 100 is complete control) [8] | Rice plant response rating (0 to 100 scale, 0 is no effect, 100 is complete control) (rice (Oryza sativa)) | Sedge, Umbrella plant response rating (0 to 100 scale, 0 is no effect, 100 is complete control) [9] | Barnyardgrass plant response rating ([10]; 125 g ai/ha) | Blackgrass plant response rating ([11]; 125 g ai/ha) | Corn plant response rating (corn (Zea mays); 125 g ai/ha) | Foxtail, Giant plant response rating ([12]; 125 g ai/ha) | Galium plant response rating ([13]; 125 g ai/ha) | Kochia plant response rating (kochia (Kochia scoparia) [14]; 125 g ai/ha) | Pigweed plant response rating ([15]; 125 g ai/ha) | Ragweed plant response rating ([16]; 125 g ai/ha) | Ryegrass, It. plant response rating ([17]; 125 g ai/ha) | Wheat plant response rating ([18]; 125 g ai/ha) | also measured |
| --- | --- | --- | --- | --- | --- | --- | --- | --- | --- | --- | --- | --- | --- | --- | --- | --- | --- | --- | --- | --- | --- |
| CCc1sc2ncccc2c1-c1c(OC(=O)OC(C)C)c(C)nn(C)c1=O [Compound 20] | 0 | 0 | 0 | 0 | 0 | 0 | 0 | 0 | 0 | 0 | 0 | 0 | 0 | 0 | 10 | 0 | 20 | 0 | 0 | 0 | Plant response rating (0 to 100 scale), Barnyardgrass ([1]; 500 g ai/ha): 0; Plant response rating (0 to 100 scale), Foxtail, Giant ([2]; 500 g ai/ha): 0; Plant response rating (0 to 100 scale), Kochia (kochia (Kochia scoparia) [3]; 500 g ai/ha): 0; Plant response rating (0 to 100 scale), Pigweed ([4]; 500 g ai/ha): 40; Plant response rating (0 to 100 scale), Ragweed ([5]; 500 g ai/ha): 0; Plant response rating (0 to 100 scale), Ryegrass, It. ([6]; 500 g ai/ha): 0; Barnyardgrass plant response rating ([10]; 500 g ai/ha): 0; Blackgrass plant response rating ([11]; 500 g ai/ha): 0; Corn plant response rating (corn (Zea mays); 500 g ai/ha): 0; Foxtail, Giant plant response rating ([12]; 500 g ai/ha): 0; Galium plant response rating ([13]; 500 g ai/ha): 40; Kochia plant response rating (kochia (Kochia scoparia) [14]; 500 g ai/ha): 0; Pigweed plant response rating ([15]; 500 g ai/ha): 50; Ragweed plant response rating ([16]; 500 g ai/ha): 0; Ryegrass, It. plant response rating ([17]; 500 g ai/ha): 0; Wheat plant response rating ([18]; 500 g ai/ha): 0 |
| CCc1sc2ncccc2c1-c1c(OC(=O)C2CC2)c(C)nn(C)c1=O [Compound 21] | 0 | 0 | 0 | 0 | 0 | 0 | 0 | 0 | 0 | 0 | 0 | 0 | 0 | 0 | 10 | 0 | 10 | 0 | 0 | 0 | Plant response rating (0 to 100 scale), Barnyardgrass ([1]; 500 g ai/ha): 0; Plant response rating (0 to 100 scale), Foxtail, Giant ([2]; 500 g ai/ha): 0; Plant response rating (0 to 100 scale), Kochia (kochia (Kochia scoparia) [3]; 500 g ai/ha): 0; Plant response rating (0 to 100 scale), Pigweed ([4]; 500 g ai/ha): 0; Plant response rating (0 to 100 scale), Ragweed ([5]; 500 g ai/ha): 0; Plant response rating (0 to 100 scale), Ryegrass, It. ([6]; 500 g ai/ha): 0; Barnyardgrass plant response rating ([10]; 500 g ai/ha): 0; Blackgrass plant response rating ([11]; 500 g ai/ha): 0; Corn plant response rating (corn (Zea mays); 500 g ai/ha): 0; Foxtail, Giant plant response rating ([12]; 500 g ai/ha): 0; Galium plant response rating ([13]; 500 g ai/ha): 20; Kochia plant response rating (kochia (Kochia scoparia) [14]; 500 g ai/ha): 0; Pigweed plant response rating ([15]; 500 g ai/ha): 30; Ragweed plant response rating ([16]; 500 g ai/ha): 0; Ryegrass, It. plant response rating ([17]; 500 g ai/ha): 0; Wheat plant response rating ([18]; 500 g ai/ha): 0 |
| CCC(=O)Oc1c(C)nn(C)c(=O)c1-c1c(C)ccc2cc(C)oc12 [Compound 22] | 10 | 50 | 90 | 100 | 80 | 80 | 0 | 0 | 0 | 0 | 10 | 80 | 0 | 70 | 90 | 90 | 90 | 90 | 80 | 0 | Plant response rating (0 to 100 scale), Barnyardgrass ([1]; 31 g ai/ha): 0; Plant response rating (0 to 100 scale), Foxtail, Giant ([2]; 31 g ai/ha): 0; Plant response rating (0 to 100 scale), Kochia (kochia (Kochia scoparia) [3]; 31 g ai/ha): 30; Plant response rating (0 to 100 scale), Pigweed ([4]; 31 g ai/ha): 100; Plant response rating (0 to 100 scale), Ragweed ([5]; 31 g ai/ha): 20; Plant response rating (0 to 100 scale), Ryegrass, It. ([6]; 31 g ai/ha): 30; Barnyardgrass plant response rating ([10]; 31 g ai/ha): 10; Blackgrass plant response rating ([11]; 31 g ai/ha): 30; Corn plant response rating (corn (Zea mays); 31 g ai/ha): 0; Foxtail, Giant plant response rating ([12]; 31 g ai/ha): 30; Galium plant response rating ([13]; 31 g ai/ha): 70; Kochia plant response rating (kochia (Kochia scoparia) [14]; 31 g ai/ha): 70; Pigweed plant response rating ([15]; 31 g ai/ha): 60; Ragweed plant response rating ([16]; 31 g ai/ha): 70; Ryegrass, It. plant response rating ([17]; 31 g ai/ha): 70; Wheat plant response rating ([18]; 31 g ai/ha): 0 |
